Legend:
[1] = Lymphatic transport assay in mesenteric lymph-duct cannulated rats; format: in vivo, rat; conditions: total MPA related compound, intraduodenal infusion, anaesthetised mesenteric lymph-duct cannulated rats; class symbols
Procedure: In order to assess the lymphatic transport of disclosed lipid prodrugs in rats, the mesenteric lymph ducts of the rats used in this study were cannulated to allow continual collection of mesenteric lymph. Lipid formulations containing the compound of interest were then administered to the animals, lymph was collected, and drug concentrations in the lymph samples were quantified.
Lipid-based formulations of the compounds of the invention or control compounds were prepared as previously described (Trevaskis, N. L. et al., Pharmaceutical Research, 2005, 22(11), 1863-1870, WO 2016/023082, and WO 2017/041139, hereby incorporated by reference.
In brief, either 1 or 2 mg of test prodrug, 40 mg oleic acid and 25 mg Tween 80 were mixed in a glass vial and incubated at 37° C. for 12-18 h to equilibrate. An aqueous phase consisting of 5.6 ml phosphate buffered saline (PBS, pH 7.4) was subsequently added to the lipid phase (MPA was dissolved in PBS for the preparation of MPA containing formulations) and the formulation emulsified by ultrasonication with a Misonix XL 2020 ultrasonic processor (Misonix, Farmingdale, NY, USA) equipped with a 3.2-mm microprobe tip running at 30% of the maximal amplitude of […] and a frequency of 20 kHz for 2 min at room temperature. Doses for administering to more than one animal can be prepared in one batch by suitably increasing the quantities given above. Drug/prodrug concentrations in all formulations were verified using HPLC-MS.
Male Sprague-Dawley (SD) rats were selected for the lymphatic transport studies involving mycophenolic acid lipid prodrugs. Depending on the therapeutic agent, male, female, or both may be selected for study. Rats (typically 240-320 g) were maintained on a standard diet and fasted overnight with free access to water prior to experiments.
Anesthetized rats were placed on a heated pad at 37° C. and cannulas inserted into the duodenum (for formulation administration and rehydration), mesenteric lymph duct (for lymph collection), and carotid artery (in cases where blood collection was conducted). Post-surgery, rats were re-hydrated for 0.5 h via intraduodenal infusion of normal saline at 2.8 mL/h. […] The collection tubes were changed hourly and lymph flow was measured gravimetrically. […]
Drug concentration in lymph is expressed as total drug and includes free drug and drug associated with different glycerides. […]
Transport of compounds into lymph during each hourly collection period was calculated from the product of the volume of lymph collected and the measured concentrations in lymph. For fluorescently-labelled compounds such as a BDP-conjugate, the concentrations of total compound may be measured by fluorescence spectroscopy without hydrolysis. […]

[2] = In vitro release of therapeutic agent from prodrugs in plasma supplemented with lipoprotein lipase; format: in vitro ADME, rat
Procedure: The percentage of MPA released at 60 minutes in LPL-supplemented rat plasma was also determined for selected compounds. […] The designation “**” indicates a release % of >25% to 50%. The designation “***” indicates a release % of >50% to 75%. The designation “****” indicates a release % of >75%.
In order to probe the release of free drug from TG prodrugs in the systemic circulation, prodrugs were incubated with plasma (rat, mouse, dog, pig or human) supplemented with lipoprotein lipase (LPL, 200 IU/ml). LPL is a key enzyme required for the hydrolysis of lipoprotein associated TG in the systemic circulation and is therefore expected to be a key contributor to lipolysis of the re-esterified drug-TG construct in plasma, largely via liberation of fatty acids in the sn-1 and the sn-3 position of the TG-mimetic, prior to drug release from the 2′ position via esterase hydrolysis. LPL is […] is tethered to the luminal surface of vascular endothelial cells under physiological conditions. In the current in vitro studies, plasma was therefore supplemented with LPL to better reflect the in vivo situation. To start hydrolysis, 10 μl of LPL solution (10,000 IU/ml) was added to a mixture of 10 μl of prodrug solution (1 mg/ml dissolved in acetonitrile) and 500 μl of blank plasma. The mixture was incubated at 37° C. Samples (20 μl) of the incubation solution were taken at 0, 5, 15, 30, 60, 90, 120 and 180 minutes post-incubation and added to 180 μl of MeCN to stop lipolysis. The mixture was vortexed and centrifuged at 4500×g for 5 minutes to precipitate proteins prior to analysis. The supernatant was analyzed by HPLC-MS/MS for the potential products (MG form, acid form, and free drug) of prodrug hydrolysis.
To assess the stability and release profile of compounds of the present invention, compounds TAC-I-18 and TAC-I-20 were incubated with rat plasma and the concentrations of compounds, parent drug tacrolimus, and acid were monitored by LCMS for about three hours.

[3] = mice, oral, multiple dose study: 2 times daily for 2 days, samples on the 3rd day (FIG. 8A/8B)
Procedure: This experiment included a single and multiple dose study. In the multiple dose study, dosing of either free MPA or MPA-2-TG (MPA-I-34, structure below) 2 times daily was performed for 2 days followed by collecting samples from mesenteric or peripheral lymph nodes on the 3rd day after dosing.
The concentrations of free MPA were measured for both groups of mice.

[4] = rat plasma supplemented with LPL, 180 min (FIG. 9, FIG. 10)

## CCCCCCCCCCCCCCCC(=O)OCC(COC(=O)CCCCCCCCCCCCCCC)OC(=O)CCCCCC(=O)Oc1c(C/C=C(\C)CCC(=O)OC)c(OC)c(C)c2c1C(=O)OC2 [MPA-I-19]
[1]
  Cumulative lymphatic transport % dose (Mean ± SD, or Range if n = 2): A (greater than 10% (>10%))
[2]; 60 min, n = 3 unless specified otherwise
  Percentage MPA release at 60 min in LPL supplemented rat plasma: **** (a release % of >75%)

## CCCCCCCCCCCCCCCC(=O)OCC(COC(=O)CCCCCCCCCCCCCCC)OC(=O)CC(C)CCCCCCCC(C)C(=O)Oc1c(C/C=C(\C)CCC(=O)OC)c(OC)c(C)c2c1C(=O)OC2 (stereo not drawn) [MPA-I-20]
[2]; [4]
  monoglyceride (MG) peak after 180 min: almost completely disappeared

## CCCCCCCCCCCCCCCC(=O)OCC(COC(=O)CCCCCCCCCCCCCCC)OC(=O)CC(C)CCCCCCCC(C)C(=O)OCCCCC(=O)Oc1c(C/C=C(\C)CCC(=O)OC)c(OC)c(C)c2c1C(=O)OC2 (stereo not drawn) [MPA-I-22, (E)-12-(1,3-Bis(palmitoyloxy)propan-2-yl) 1-(5-((6-methoxy-5-(6-methoxy-3-methyl-6-oxohex-2-en-1-yl)-7-methyl-3-oxo-1,3-dihydroisobenzofuran-4-yl)oxy)-5-oxopentyl) 2,10-dimethyldodecanedioate]
[2]; [4]
  MPA released after 180 min: about 80%
  monoglyceride (MG) peak after 180 min: almost completely disappeared

## CCCCCCCCCCCCCCCC(=O)OCC(COP(=O)([O-])OCC[N+](C)(C)C)OC(=O)CC/C(C)=C/Cc1c(O)c2c(c(C)c1OC)COC2=O (stereo not drawn) [MPA-I-39]
[1]
  Cumulative lymphatic transport % dose (Mean ± SD, or Range if n = 2): C (less than 1% and greater than 0.24% (<1% and >0.24%))

## CCCCCCCCCCCCCCCC(=O)OCC(COC(=O)CCCCCCCCCCCCCCC)OC(=O)COC(=O)CC/C(C)=C/Cc1c(O)c2c(c(C)c1OC)COC2=O [MPA-I-46]
[1]
  Cumulative lymphatic transport % dose (Mean ± SD, or Range if n = 2): A (greater than 10% (>10%))

## CCCCCCCCCCCCCCCC(=O)OCC(COC(=O)CCCCCCCCCCCCCCC)OC(=O)CC(C)COC(=O)CC/C(C)=C/Cc1c(O)c2c(c(C)c1OC)COC2=O (stereo not drawn) [MPA-I-50]
[1]
  Cumulative lymphatic transport % dose (Mean ± SD, or Range if n = 2): A (greater than 10% (>10%))

## CCCCCCCCCCCCCCCC(=O)OCC(COC(=O)CCCCCCCCCCCCCCC)OC(=O)CC/C(C)=C/Cc1c(O)c2c(c(C)c1OC)COC2=O [MPA-TG]
[3]
  concentrations of free MPA in mesenteric lymph nodes compared with MPA: Much higher concentrations
